Assay results: patent US20230265116A1, “DEGRADATION OF (EGFR) BY CONJUGATION OF EGFR INHIBITORS WITH E3 LIGASE LIGAND AND METHODS OF USE” (BEIGENE, LTD., priority 2020, published 2023)
Where two headings read alike, the source gives them in different places.

What was measured:
Assay type in all cases: cell-based
[1] = biological target: T1, EGFR L858R/T790M/C797S (BaF3-LTC cells) (Homo sapiens, UniProt P00533, C797S/L858R/T790M); assay: EGFR degradation HTRF assay, BaF3-LTC cells; conditions: for Dmax: maximum percentage of degradation, read-out: LTC Dmax (%)
T1 construct: expressed in transfected cells; host or cells: BaF3
Method in brief: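 Cells treated 16 h at 37 °C, 5% CO2 in medium with 0.2% DMSO; top final concentration 10 uM, 5-fold dilution, 8 doses. Lysates read by HTRF (665/620 nm); degradation % versus DMSO high control, DC50 from four-parameter fit, Dmax as maximal degradation.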

[2] = tested on: EGFR Del19/T790M/C797S (BaF3-DTC cells); assay: EGFR degradation HTRF assay, BaF3-DTC cells; conditions: for DTC Dmax (%): maximum percentage of degradation
Method in brief: (§1)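 EGFR remaining after a 16 h, 37 °C exposure (8 doses, 5-fold steps from 10 uM final, 0.2% DMSO) was quantified by HTRF antibodies in cell lysate. Percent inhibition relative to DMSO control was fitted by four-parameter logistic to give DC50; Dmax denotes maximal degradation.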

EGFR WT (BaF3 WT cells) = biological target: T2, EGFR WT (BaF3 WT cells) (Homo sapiens, UniProt P00533); assay: EGFR degradation HTRF assay, BaF3 WT cells
T2 construct: expressed in transfected cells; host or cells: BaF3
Protocol: BaF3 WT(wild type), BaF3-LTC(L858R/T790M/C797S) and BaF3-DTC(Del19/T790M/C797S) cells are treated with compounds diluted in 0.2% DMSO cell culture medium and incubate for 16h, 37° C., 5% CO2, H1975-#36, H1975-#28, H1975-#23 and HCC827 cells are treated with compounds diluted in 0.2% DMSO cell culture medium on day 2, incubate for 16h, 37° C., 5% CO2.the final concentriation of compounds in all assay is start with 10 uM, 5-fold dilution, total 8 doses were included.
After 16h treatment, add HTRF lysis buffer to each well; seal the plate and incubate 1 hour at room temperature on a plate shaker; Once the cells are lysed, 16 μL of cell lysate are transferred to a PE 384-well HTRF detection plate; 4 μL of pre-mixed HTRF antibodies are added to each well; Cover the plate with a plate sealer, spin 1000 rpm for 1 min, Incubate overnight at room temperature; Read on BMG PheraStar with HTRF protocol (337 nm-665 nm-620 nm).
The inhibition (degradation) percentage of the compound was calculated by the following equation: Inhibition percentage of Compound=100-100×(Signal-low control)/(High control-low control), wherein signal=each test compound group
High control=Cell group with added DMSO and without compound, indicating microplate readings without EGFR degradation;
Dmax is the maximum percentage of inhibition (degradation).
The IC50 (DC50) value of a compound can be obtained by fitting the following equation
Y=Bottom+(TOP−Bottom)/(1+((IC50/X)^hillslope))
Wherein, X and Y are known values, and IC50, Hillslope, Top and Bottom are the parameters obtained by fitting with software. Y is the inhibition percentage (calculated from the equation), X is the concentration of the compound; IC50 is the concentration of the compound when the 50% inhibition is reached. The smaller the IC50 value is, the stronger the inhibitory ability of the compound is. Vice versa, the higher the IC50 value is, the weaker the inhibitory ability of the compound is; Hillslope represents the slope of the fitted curve, generally around 1*; Bottom represents the minimum value of the curve obtained by data fitting, which is generally 0%±20%; Top represents the maximum value of the curve obtained by data fitting, which is generally 100%±20%. The experimental data were fitted by calculating and analyzing with Dotmatics data analysis software.

[3] = biological target: T3, EGFR L858R/T790M (H1975-clone #36, homozygous) (Homo sapiens, UniProt P00533, L858R/T790M); assay: EGFR degradation HTRF assay, H1975-clone #36 cells; conditions: H1975 #36, 16h treatment; for Dmax: NCI-H1975, maximum percentage of degradation
T3 construct: designed to specifically target WT EGFR but preserve the L858R/T790M copy; host or cells: H1975-clone #36
Method in brief: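 H1975 clone #36, made homozygous for L858R/T790M EGFR by knockout of the WT allele, treated 16 h at 37 °C with compound in 0.2% DMSO medium. Eight doses from 10 uM, 5-fold dilutions. EGFR measured by HTRF in lysates. DC50 and Dmax fitted against DMSO controls.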

EGFR (HCC827 cells) = biological target: T4, EGFR (HCC827 cells) (Homo sapiens, UniProt P00533, DEL746-750); assay: EGFR degradation HTRF assay, HCC827 cells; conditions: HCC827, 16h treatment; for Dmax: maximum percentage of degradation
T4 construct: endogenous in cells; host or cells: HCC827
Method in brief: as §1

[4] = tested on: EGFR Del19/T790M/C797S (H1975-clone #28); assay: EGFR degradation HTRF assay, H1975-clone #28 DTC cells; conditions: H1975 # 28 DTC cells; for DC50: EGFR degradation, IC50 (DC50) from curve fit, read-out: DC50(nM) H1975 # 28 DTC; for Dmax (%) H1975 # 28 DTC: maximum percentage of inhibition (degradation)
Method in brief: (§2)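 H1975 clones stably overexpressing mutant EGFR, with endogenous EGFR knocked out by sgRNA and homozygosity confirmed by sequencing, were treated 16h at 37° C. with compounds in 0.2% DMSO (top final 10 uM, 5-fold, 8 doses). Lysates were read by HTRF (665/620 nm); DC50 and Dmax came from fitting % degradation versus DMSO control.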

[5] = biological target: T5, EGFR L858R/C797S (BaF3 LC cells) (Homo sapiens, UniProt P00533, C797S/L858R); assay: EGFR degradation HTRF assay, BaF3 LC cells; conditions: BaF3 LC, 16h treatment; read-out: BaF3 LC DC50
T5 construct: expressed in transfected cells; host or cells: BaF3

[6] = tested on: EGFR Del19/C797S (H1975-clone #23); assay: EGFR degradation HTRF assay, H1975-clone #23 DC cells; conditions: 16h treatment; for H1975 #23 DC Dmax (%): maximum percentage of degradation; for DC50: H1975 #23 DC, read-out: H1975 #23 DC DC50
Method in brief: as §2

[7] = BaF3-LTC, 16h treatment, read-out: LTC DC50
[8] = 16h treatment, read-out: DTC DC50
[9] = BaF3 WT, 16h treatment, maximum percentage of degradation, read-out: WT Dmax (%)
[10] = BaF3-LTC cells, EGFR degradation, IC50 (DC50) from curve fit, read-out: DC50(nM) BaF3-LTC

T4 sequence (P00533 with tags, fused parts or gaps DEL746-750): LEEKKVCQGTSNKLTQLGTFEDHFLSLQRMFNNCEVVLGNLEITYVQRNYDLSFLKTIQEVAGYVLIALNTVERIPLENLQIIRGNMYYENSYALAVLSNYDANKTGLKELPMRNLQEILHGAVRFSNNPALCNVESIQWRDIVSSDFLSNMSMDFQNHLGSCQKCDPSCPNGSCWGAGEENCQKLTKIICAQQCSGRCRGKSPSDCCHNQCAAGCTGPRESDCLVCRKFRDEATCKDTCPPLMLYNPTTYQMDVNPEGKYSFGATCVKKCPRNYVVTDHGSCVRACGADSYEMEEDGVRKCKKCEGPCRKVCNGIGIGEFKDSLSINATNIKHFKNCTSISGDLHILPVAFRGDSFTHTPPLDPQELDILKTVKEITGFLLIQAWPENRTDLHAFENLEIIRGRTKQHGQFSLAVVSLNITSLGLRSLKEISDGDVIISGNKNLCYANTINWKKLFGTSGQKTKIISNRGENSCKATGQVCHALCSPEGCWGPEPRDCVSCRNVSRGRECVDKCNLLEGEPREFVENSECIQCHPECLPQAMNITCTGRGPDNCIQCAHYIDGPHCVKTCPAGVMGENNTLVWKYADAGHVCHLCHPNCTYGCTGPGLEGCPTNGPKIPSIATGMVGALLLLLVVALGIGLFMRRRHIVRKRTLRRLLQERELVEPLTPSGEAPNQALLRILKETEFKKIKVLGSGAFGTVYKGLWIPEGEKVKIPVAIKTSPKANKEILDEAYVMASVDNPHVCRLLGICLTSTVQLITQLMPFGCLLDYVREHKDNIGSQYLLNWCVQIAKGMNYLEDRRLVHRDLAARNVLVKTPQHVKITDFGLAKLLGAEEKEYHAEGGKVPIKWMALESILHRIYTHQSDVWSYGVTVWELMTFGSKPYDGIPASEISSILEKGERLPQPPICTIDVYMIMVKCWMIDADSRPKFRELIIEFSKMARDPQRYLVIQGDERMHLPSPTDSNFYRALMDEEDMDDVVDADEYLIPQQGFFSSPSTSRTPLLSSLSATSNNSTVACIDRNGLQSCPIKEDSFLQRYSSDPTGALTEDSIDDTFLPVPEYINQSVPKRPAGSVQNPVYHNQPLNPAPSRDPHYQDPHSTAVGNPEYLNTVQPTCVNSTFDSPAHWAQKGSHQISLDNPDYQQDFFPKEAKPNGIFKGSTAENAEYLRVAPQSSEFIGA
T3 sequence (P00533 25-1210 T790M/L858R): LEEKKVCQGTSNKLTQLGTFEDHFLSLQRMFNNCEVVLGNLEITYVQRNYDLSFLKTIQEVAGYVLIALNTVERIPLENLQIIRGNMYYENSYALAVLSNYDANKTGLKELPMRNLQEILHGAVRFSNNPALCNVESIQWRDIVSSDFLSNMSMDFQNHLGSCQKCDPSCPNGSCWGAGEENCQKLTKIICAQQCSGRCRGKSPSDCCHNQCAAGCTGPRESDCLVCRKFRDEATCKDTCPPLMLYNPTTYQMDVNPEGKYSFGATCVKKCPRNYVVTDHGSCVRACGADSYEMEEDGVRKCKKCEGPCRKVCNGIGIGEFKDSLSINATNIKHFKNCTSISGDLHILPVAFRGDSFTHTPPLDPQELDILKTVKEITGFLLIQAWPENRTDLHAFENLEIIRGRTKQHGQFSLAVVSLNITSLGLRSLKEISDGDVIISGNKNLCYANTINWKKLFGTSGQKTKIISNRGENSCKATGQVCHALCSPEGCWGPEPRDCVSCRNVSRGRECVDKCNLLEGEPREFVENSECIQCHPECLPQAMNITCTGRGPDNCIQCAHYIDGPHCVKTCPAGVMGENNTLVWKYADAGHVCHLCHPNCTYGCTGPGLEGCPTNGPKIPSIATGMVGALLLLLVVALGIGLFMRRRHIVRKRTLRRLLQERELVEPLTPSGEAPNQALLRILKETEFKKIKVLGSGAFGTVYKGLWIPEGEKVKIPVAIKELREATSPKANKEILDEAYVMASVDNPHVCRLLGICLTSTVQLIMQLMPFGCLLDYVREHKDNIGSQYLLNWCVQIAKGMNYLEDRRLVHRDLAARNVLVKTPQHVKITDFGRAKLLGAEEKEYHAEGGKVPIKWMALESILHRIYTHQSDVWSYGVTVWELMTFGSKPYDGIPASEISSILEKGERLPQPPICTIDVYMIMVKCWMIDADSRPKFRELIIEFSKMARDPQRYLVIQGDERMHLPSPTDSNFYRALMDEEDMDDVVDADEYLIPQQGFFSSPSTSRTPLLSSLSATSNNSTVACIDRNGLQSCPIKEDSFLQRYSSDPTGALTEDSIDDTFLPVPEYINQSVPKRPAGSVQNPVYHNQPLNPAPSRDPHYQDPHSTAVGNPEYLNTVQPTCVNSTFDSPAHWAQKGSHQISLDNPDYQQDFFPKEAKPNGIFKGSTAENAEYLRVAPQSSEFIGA
T1 sequence (P00533 25-1210 T790M/C797S/L858R): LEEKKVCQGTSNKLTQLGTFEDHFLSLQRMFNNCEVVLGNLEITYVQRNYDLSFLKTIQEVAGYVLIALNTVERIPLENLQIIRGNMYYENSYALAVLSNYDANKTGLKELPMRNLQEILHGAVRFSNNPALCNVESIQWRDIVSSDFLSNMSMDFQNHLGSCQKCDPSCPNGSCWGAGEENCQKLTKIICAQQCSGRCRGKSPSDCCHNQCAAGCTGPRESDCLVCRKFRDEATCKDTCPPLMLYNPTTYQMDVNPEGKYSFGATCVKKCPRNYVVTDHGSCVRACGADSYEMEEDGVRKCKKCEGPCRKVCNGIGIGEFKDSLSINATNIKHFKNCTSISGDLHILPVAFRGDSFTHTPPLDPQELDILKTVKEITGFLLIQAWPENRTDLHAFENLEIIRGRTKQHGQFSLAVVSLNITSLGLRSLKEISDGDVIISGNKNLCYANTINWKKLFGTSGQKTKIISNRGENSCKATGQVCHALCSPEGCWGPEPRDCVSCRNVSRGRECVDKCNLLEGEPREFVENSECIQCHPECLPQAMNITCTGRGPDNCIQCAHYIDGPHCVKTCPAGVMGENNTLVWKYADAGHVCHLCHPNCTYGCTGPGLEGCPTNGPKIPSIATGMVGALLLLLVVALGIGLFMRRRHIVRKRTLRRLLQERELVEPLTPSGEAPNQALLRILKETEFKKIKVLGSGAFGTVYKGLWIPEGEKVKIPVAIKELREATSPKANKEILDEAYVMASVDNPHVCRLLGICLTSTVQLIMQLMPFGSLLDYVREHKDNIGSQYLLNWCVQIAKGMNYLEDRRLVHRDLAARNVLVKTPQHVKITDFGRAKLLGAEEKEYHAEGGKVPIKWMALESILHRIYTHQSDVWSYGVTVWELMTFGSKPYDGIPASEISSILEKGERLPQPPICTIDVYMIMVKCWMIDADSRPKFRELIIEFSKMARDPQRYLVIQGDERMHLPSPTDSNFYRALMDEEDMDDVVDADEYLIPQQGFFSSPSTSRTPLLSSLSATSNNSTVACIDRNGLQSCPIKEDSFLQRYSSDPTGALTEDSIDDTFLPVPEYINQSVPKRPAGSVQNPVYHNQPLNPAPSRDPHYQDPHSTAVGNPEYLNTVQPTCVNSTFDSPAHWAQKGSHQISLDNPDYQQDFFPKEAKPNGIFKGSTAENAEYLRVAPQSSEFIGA
T2 sequence (P00533 25-1210): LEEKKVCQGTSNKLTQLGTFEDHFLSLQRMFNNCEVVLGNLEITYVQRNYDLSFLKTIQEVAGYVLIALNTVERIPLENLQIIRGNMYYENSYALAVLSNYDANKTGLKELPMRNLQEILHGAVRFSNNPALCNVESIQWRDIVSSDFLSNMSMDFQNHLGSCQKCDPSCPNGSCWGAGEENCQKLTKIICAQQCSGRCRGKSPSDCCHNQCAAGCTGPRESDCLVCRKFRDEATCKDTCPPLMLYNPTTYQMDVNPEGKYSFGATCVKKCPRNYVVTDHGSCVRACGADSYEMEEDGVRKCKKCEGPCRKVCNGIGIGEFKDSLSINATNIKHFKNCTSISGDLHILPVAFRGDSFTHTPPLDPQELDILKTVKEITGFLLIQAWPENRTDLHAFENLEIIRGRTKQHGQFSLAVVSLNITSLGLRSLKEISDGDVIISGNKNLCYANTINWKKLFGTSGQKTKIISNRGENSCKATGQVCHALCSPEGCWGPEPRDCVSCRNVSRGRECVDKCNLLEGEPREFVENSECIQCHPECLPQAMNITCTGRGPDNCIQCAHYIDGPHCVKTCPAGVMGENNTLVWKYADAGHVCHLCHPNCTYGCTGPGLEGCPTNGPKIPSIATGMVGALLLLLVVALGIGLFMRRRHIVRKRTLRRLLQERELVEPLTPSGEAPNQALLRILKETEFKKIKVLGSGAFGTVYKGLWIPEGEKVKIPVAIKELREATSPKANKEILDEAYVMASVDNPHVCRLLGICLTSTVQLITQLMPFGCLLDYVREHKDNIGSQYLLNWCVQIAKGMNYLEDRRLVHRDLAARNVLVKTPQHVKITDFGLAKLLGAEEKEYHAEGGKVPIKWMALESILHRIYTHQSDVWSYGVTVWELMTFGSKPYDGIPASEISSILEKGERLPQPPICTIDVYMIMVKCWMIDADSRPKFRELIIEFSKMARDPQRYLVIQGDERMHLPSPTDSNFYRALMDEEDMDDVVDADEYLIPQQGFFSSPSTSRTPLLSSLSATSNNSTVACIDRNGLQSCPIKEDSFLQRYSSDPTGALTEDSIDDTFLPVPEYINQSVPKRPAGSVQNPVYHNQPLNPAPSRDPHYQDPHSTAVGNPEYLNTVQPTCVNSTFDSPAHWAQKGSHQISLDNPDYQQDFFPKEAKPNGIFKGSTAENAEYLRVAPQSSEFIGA

SMILES	Dmax ([1]; BaF3-LTC, 16h treatment)	DC50 [1, 7]	DC50 [2, 8]	DC50 (EGFR WT (BaF3 WT cells); BaF3 WT, 16h treatment)	Dmax (EGFR WT (BaF3 WT cells); [9])	DC50 [3]	Dmax [3]	DC50 (EGFR (HCC827 cells))	Dmax (EGFR (HCC827 cells))	DC50 [1, 10]	DC50 [4]	DC50 [5]	DC50 [6]	DTC Dmax (%) ([2]; 16h treatment)	DC50 ([2]; read-out: DTC DC50, 16h treatment)	Dmax (EGFR WT (BaF3 WT cells); BaF3, read-out: WT Dmax (%))	Dmax (%) H1975 # 28 DTC [4]	H1975 #23 DC Dmax (%) [6]
CCc1cc(Nc2ncc(Br)c(Nc3ccc4nccnc4c3P(C)(C)=O)n2)c(OC)cc1N1CCC(N2CCN(CCCN3CCN(c4ccc5c(c4)C(=O)N(C4CCC(=O)NC4=O)C5=O)CC3)CC2)CC1 (centres unmarked) [Example 60, 5-(4-(3-(4-(1-(4-((5-bromo-4-((5-(dimethylphosphoryl)quinoxalin-6-yl)amino)pyrimidin-2-yl)amino)-2-ethyl-5-methoxyphenyl)piperidin-4-yl)piperazin-1-yl)propyl)piperazin-1-yl)-2-(2,6-dioxopiperidin-3-yl)isoindoline-1,3-dione]	91.2%	89 nM	42.2 nM	8860 nM	51.6%	16.5 nM	73.4%	4.8 nM	86.8%	–	–	–	–	94.93%	–	–	–	–
CCc1cc(Nc2ncc(Br)c(Nc3ccc4nccnc4c3P(C)(C)=O)n2)c(OC)cc1N1CCC(N2CCN(CCc3ccc(C4CCC(=O)NC4=O)c(F)c3)CC2)CC1 (centres unmarked) [Example 5, 3-(4-(2-(4-(1-(4-((5-bromo-4-((5-(dimethylphosphoryl)quinoxalin-6-yl)amino)pyrimidin-2-yl)amino)-2-ethyl-5-methoxyphenyl)piperidin-4-yl)piperazin-1-yl)ethyl)-2-fluorophenyl)piperidine-2,6-dione]	90.4%	13.1 nM	4.96 nM	> 10000 nM	47.9%	4.66 nM	84.1%	2.56 nM	83.9%	–	–	–	–	96.75%	–	–	–	–
CCc1cc(Nc2ncc(Br)c(Nc3ccc4nccnc4c3P(C)(C)=O)n2)c(OC)cc1N1CCC(N2CCN(CCc3ccc(C4CCC(=O)NC4=O)cc3)CC2)CC1 (centres unmarked) [Example 1, 3-(4-(2-(4-(1-(4-((5-bromo-4-((5-(dimethylphosphoryl)quinoxalin-6-yl)amino)pyrimidin-2-yl)amino)-2-ethyl-5-methoxyphenyl)piperidin-4-yl)piperazin-1-yl)ethyl)phenyl)piperidine-2,6-dione]	89.3%	–	–	> 10000 nM	49.2%	7.22 nM	60.8%	3.6 nM	86.9%	–	–	–	–	–	–	–	–	–
CCc1cc(Nc2ncc(Br)c(Nc3ccc4nccnc4c3P(C)(C)=O)n2)c(OC)cc1N1CCC(N2CCN(CCN(C)c3ccc4c(c3)CN(C3CCC(=O)NC3=O)C4=O)CC2)CC1 (centres unmarked) [Example 71, 3-(5-((2-(4-(1-(4-((5-bromo-4-((5-(dimethylphosphoryl)quinoxalin-6-yl)amino)pyrimidin-2-yl)amino)-2-ethyl-5-methoxyphenyl)piperidin-4-yl)piperazin-1-yl)ethyl)(methyl)amino)-1-oxoisoindolin-2-yl)piperidine-2,6-dione]	80%	11.5 nM	–	> 10000 nM	–	–	–	–	–	–	–	–	–	81.19%	7.52 nM	31.4%	–	–
CCc1cc(Nc2ncc(Br)c(Nc3ccc4nccnc4c3P(C)(C)=O)n2)c(OC)cc1N1CCC(N2CCN(C(=O)C3CCN(CC4CCN(c5ccc6c(c5)C(=O)N(C5CCC(=O)NC5=O)C6=O)CC4)CC3)CC2)CC1 (centres unmarked) [Example 63, 5-(4-((4-(4-(1-(4-((5-bromo-4-((5-(dimethylphosphoryl)quinoxalin-6-yl)amino)pyrimidin-2-yl)amino)-2-ethyl-5-methoxyphenyl)piperidin-4-yl)piperazine-1-carbonyl)piperidin-1-yl)methyl)piperidin-1-yl)-2-(2,6-dioxopiperidin-3-yl)isoindoline-1,3-dione]	38.5%	> 2000 nM	281 nM	> 10000 nM	3.27%	–	–	1.74 nM	86.3%	–	–	–	–	52.42%	–	–	–	–

Continued, in another order:

Dmax ([1]; BaF3-LTC, 16h treatment)	DC50 [1, 7]	DC50 [2, 8]	DC50 (EGFR WT (BaF3 WT cells); BaF3 WT, 16h treatment)	Dmax (EGFR WT (BaF3 WT cells); [9])	DC50 [3]	Dmax [3]	DC50 (EGFR (HCC827 cells))	Dmax (EGFR (HCC827 cells))	DC50 [1, 10]	DC50 [4]	DC50 [5]	DC50 [6]	SMILES	DTC Dmax (%) ([2]; 16h treatment)	DC50 ([2]; read-out: DTC DC50, 16h treatment)	Dmax (EGFR WT (BaF3 WT cells); BaF3, read-out: WT Dmax (%))	Dmax (%) H1975 # 28 DTC [4]	H1975 #23 DC Dmax (%) [6]
95%	12.2 nM	8.49 nM	> 10000 nM	26.1%	–	–	–	–	–	–	–	–	CCc1cc(Nc2ncc(Br)c(Nc3ccc4nccnc4c3P(C)(C)=O)n2)c(OC)cc1N1CCC(N2CCN(CCC3CCN(c4ccc5c(c4)CN(C4CCC(=O)NC4=O)C5=O)CC3)CC2)CC1 (centres unmarked) [Example 70, 3-(5-(4-(2-(4-(1-(4-((5-bromo-4-((5-(dimethylphosphoryl)quinoxalin-6-yl)amino)pyrimidin-2-yl)amino)-2-ethyl-5-methoxyphenyl)piperidin-4-yl)piperazin-1-yl)ethyl)piperidin-1-yl)-1-oxoisoindolin-2-yl)piperidine-2,6-dione]	91.36%	–	–	–	–
–	–	–	–	–	–	–	–	–	3.86 nM	2.48 nM	3.97 nM	1.45 nM	CCOc1cc(N2CCC(N3CCN(CCc4cccc5c4n(CC)c(=O)n5C4CCC(=O)NC4=O)CC3)CC2)c(CC)cc1Nc1ncc(Br)c(Nc2cc(F)c3nc(CC)ccc3c2P(C)(C)=O)n1 (centres unmarked) [Example 643, 3-(4-(2-(4-(1-(4-((5-bromo-4-((5-(dimethylphosphoryl)-2-ethyl-8-fluoroquinolin-6-yl)amino)pyrimidin-2-yl)amino)-5-ethoxy-2-ethylphenyl)piperidin-4-yl)piperazin-1-yl)ethyl)-3-ethyl-2-oxo-2,3-dihydro-1H-benzo[d]imidazol-1-yl)piperidine-2,6-dione]	–	–	–	65.15%	73.67%
–	–	–	–	–	–	–	–	–	83.7 nM	6.28 nM	20.1 nM	2.43 nM	CCc1cc(Nc2ncc(Br)c(Nc3ccc4c(=O)n(CC)ncc4c3P(C)(C)=O)n2)c(OC)cc1N1CCC(N2CCN(CCc3cc(F)c([C@H]4CCC(=O)NC4=O)c(F)c3)CC2)CC1 [Example 753, (R)-3-(4-(2-(4-(1-(4-((5-bromo-4-((5-(dimethylphosphoryl)-2-ethyl-1-oxo-1,2-dihydrophthalazin-6-yl)amino)pyrimidin-2-yl)amino)-2-ethyl-5-methoxyphenyl)piperidin-4-yl)piperazin-1-yl)ethyl)-2,6-difluorophenyl)piperidine-2,6-dione]	–	–	–	87.49%	78.45%
